Target: LovK (Caulobacter vibrioides, UniProt A0A0H3C379)
Experiment: competition with BODIPY-ATP, fluorescence anisotropy
Assay type: binding
Settings: 1 mM ATP in excess; competitive, same site as BODIPY-ATP

In the case of `Nc1ncnc2c1ncn2[C@@H]1O[C@H](COP(=O)(O)OP(=O)(O)OP(=O)(O)O)[C@@H](O)[C@H]1O` [ATP], the “competition with BODIPY-ATP, fluorescence anisotropy” value is reported as “BODYPI-ATP is displaced from LovK due to competition for the same binding site”.

— PMC2882989 (Biochemistry, 2010)
